According to patent US20240199623A1 (ILDONG PHARMACEUTICAL CO., LTD., priority 2020, published 2024):
In brackets after ≈: the same amount, converted by molar mass. Like-named read-outs stand apart in the source and are kept apart here.

What was measured:
Human recombinant PDE4C1 = target: T1, Human recombinant PDE4C1 (Homo sapiens, UniProt Q08493); test: Human phosphodiesterase 4 (PDE4) inhibition, PDE4C1; assay type: biochemical; conditions: read-out: % inhibition range at 10 uM PDE4C1
T1 construct: purchased BPS Bioscience; host or cells: insect Sf9 cells
Procedure: (§1) […] Human recombinant PDE4A1A, PDE4B 1, PDE4C1 and PDE4D2 are respectively expressed in each host cell (insect Sf9 cells, BPS Bioscience). Preincubation of 10 μM test compounds or vehicle was proceeded with 20 ng/ml PDE4A1A or 4 ng/ml PDE4B 1 or 8 ng/ml PDE4C1 or 5 ng/ml PDE4D2 enzyme in Tris-HCl buffer pH 7.2 for 15 minutes at 25° C. 100 nM fluorescein (FAM) labeled cAMP for another 30 minutes incubation period was added in order to initiate the enzymatic reaction and addition of IMAP binding solution was followed for its termination. Specifically, IMAP complexes with phosphate groups on nucleotide monophosphate generated from cyclic nucleotides through PDE activity. The amount of complex formed is determined by reading spectrofluorimetrical signal at 470 nm/525 nm.

human wild type-CFTR [1] = target: T2, human wild type-CFTR (Homo sapiens, UniProt P13569); test: Cell-based YFP assay; parameters: expressed in transfected cells; host or cells: CHO-K1 (Chinese hamster ovary); conditions: CHO-K1 cells expressing human wild type-CFTR and YFP-H148Q/I152L; forskolin 20 μM = 100% activity; read-out: Cell-based YFP Assay (EC50) Concentration Range
Summary of the method: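 CHO-K1 cells co-expressing human wild-type CFTR and YFP-H148Q/I152L halide sensor, grown 48 h at 37 °C, then in PBS. YFP quenching by I⁻ influx read at 37 °C after adding 140 mM I⁻ solution, sampled every 0.4 s for 14 s. Triplicates averaged; EC50 fitted.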

human wild type-CFTR [2] = target: T2, human wild type-CFTR; test: Short-circuit current measurement; assay type: cell-based; parameters: expressed in transfected cells; conditions: FRT cells expressing human wild type-CFTR; Forskolin 20 μM signal used as 100% activity; read-out: Short-circuit current measurement (EC50) Concentration range
Summary of the method: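 Ussing-chamber short-circuit current in FRT cells expressing human wild-type CFTR, grown on Snapwell inserts. Forskolin, test compounds and CFTRinh-172 added to both apical and basolateral baths; apical membrane current and Isc sampled at 4 Hz.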

[3] = target: T3, Human recombinant PDE4B 1 (Homo sapiens, UniProt Q07343); test: Human phosphodiesterase 4 (PDE4) inhibition, PDE4B 1; assay type: biochemical; conditions: read-out: % inhibition range at 10 uM PDE4B1
T3 construct: purchased BPS Bioscience; host or cells: insect Sf9 cells
Procedure: as §1

Human recombinant PDE4D2 = target: T4, Human recombinant PDE4D2 (Homo sapiens, UniProt Q08499); test: Human phosphodiesterase 4 (PDE4) inhibition, PDE4D2; assay type: biochemical; conditions: read-out: % inhibition range at 10 uM PDE4D2
T4 construct: purchased BPS Bioscience; host or cells: insect Sf9 cells
Procedure: as §1

[4] = Phosphate-buffered saline (PBS) solubility of compounds; assay type: physicochemical; conditions: aqueous buffer, thermodynamic from solid, PBS pH 7.5, 0.5 mg/mL, vortexed 90 min, filtered, LC-MS/MS, read-out: Solubility Range
Procedure: PBS solutions (pH 7.5) were prepared according to the following compositions and stored at 4° C. Test compounds were dissolved in PBS (pH 7.5) at 0.5 mg/mL and vortexed for 90 min. The PBS solution was sequentially filtered through a 0.45, 1.2, […] syringe filter. Concentration of test compounds were determined using LC-MS/MS with appropriate dilution of the samples.

[5] = target: T5, Human recombinant PDE4A1A (Homo sapiens, UniProt P27815); test: Human phosphodiesterase 4 (PDE4) inhibition, PDE4A1A; assay type: biochemical; conditions: read-out: % inhibition range at 10 uM PDE4A1A
T5 construct: purchased BPS Bioscience; host or cells: insect Sf9 cells
Procedure: as §1

T1 sequence (Q08493 whole entry): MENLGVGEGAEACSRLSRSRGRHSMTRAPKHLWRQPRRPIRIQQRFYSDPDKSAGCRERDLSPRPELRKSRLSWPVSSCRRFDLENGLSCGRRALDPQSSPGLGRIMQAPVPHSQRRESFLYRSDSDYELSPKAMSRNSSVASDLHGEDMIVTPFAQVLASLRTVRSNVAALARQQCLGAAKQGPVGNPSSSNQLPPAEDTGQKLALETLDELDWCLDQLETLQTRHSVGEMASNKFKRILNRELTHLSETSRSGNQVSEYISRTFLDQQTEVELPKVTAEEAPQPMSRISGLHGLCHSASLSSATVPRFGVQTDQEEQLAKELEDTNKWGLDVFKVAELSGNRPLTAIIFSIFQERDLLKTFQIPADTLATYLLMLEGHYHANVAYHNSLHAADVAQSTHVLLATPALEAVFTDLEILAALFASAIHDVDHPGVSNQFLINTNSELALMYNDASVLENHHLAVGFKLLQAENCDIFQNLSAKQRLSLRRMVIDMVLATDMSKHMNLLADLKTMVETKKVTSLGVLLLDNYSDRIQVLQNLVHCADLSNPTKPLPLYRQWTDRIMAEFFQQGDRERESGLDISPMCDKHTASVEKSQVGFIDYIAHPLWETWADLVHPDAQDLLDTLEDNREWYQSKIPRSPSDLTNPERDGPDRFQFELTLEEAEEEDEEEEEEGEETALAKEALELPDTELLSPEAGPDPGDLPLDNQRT
T4 sequence (Q08499 303-809 limits assumed): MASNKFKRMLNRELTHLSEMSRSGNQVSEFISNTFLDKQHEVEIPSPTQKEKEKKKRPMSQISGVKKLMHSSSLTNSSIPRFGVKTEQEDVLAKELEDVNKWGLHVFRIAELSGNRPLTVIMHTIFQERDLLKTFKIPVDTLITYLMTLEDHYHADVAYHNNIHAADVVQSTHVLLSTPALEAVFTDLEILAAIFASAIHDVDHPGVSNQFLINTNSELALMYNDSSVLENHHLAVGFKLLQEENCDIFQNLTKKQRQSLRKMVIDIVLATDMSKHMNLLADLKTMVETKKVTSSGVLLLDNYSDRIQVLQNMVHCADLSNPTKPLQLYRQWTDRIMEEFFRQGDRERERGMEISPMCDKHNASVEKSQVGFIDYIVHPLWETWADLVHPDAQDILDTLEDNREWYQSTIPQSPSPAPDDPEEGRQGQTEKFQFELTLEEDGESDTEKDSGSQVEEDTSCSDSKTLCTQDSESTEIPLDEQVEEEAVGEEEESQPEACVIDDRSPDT
T2 sequence (P13569 whole entry): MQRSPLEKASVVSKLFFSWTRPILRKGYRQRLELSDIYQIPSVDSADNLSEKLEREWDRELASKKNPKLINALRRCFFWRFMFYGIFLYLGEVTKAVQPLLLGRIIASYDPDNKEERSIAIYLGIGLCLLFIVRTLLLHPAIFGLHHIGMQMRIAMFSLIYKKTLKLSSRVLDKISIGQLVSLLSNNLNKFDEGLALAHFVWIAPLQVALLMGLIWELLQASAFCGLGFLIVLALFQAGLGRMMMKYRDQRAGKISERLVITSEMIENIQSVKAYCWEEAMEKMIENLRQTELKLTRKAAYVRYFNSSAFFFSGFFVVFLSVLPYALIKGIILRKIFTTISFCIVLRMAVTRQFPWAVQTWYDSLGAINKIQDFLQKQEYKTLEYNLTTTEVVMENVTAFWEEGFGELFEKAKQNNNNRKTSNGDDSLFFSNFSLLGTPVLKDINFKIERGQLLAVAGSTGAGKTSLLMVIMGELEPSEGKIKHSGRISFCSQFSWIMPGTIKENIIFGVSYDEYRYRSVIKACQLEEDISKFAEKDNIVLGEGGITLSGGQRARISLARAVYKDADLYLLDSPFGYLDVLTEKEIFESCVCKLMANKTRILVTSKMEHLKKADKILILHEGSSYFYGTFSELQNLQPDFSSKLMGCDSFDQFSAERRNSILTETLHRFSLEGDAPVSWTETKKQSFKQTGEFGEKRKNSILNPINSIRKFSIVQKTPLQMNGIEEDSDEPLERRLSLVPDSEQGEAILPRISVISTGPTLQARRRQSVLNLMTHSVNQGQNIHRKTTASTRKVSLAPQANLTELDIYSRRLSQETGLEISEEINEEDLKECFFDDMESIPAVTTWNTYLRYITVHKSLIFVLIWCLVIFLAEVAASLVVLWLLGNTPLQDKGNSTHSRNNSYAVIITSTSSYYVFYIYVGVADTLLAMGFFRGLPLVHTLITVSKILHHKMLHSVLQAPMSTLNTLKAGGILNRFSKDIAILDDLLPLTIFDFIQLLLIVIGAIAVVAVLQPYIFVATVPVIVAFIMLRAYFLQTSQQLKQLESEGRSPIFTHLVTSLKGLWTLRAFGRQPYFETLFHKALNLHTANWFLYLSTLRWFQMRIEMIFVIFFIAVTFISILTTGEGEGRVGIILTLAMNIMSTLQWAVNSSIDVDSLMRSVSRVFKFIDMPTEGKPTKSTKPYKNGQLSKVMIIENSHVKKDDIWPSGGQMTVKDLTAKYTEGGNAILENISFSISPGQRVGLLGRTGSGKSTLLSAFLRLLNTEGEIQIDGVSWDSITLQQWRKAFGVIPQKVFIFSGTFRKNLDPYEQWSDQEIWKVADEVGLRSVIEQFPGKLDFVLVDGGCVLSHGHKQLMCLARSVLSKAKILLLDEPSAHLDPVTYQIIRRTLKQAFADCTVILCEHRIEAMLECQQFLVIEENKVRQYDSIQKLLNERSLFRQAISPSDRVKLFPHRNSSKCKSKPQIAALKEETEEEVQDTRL
T3 sequence (Q07343 whole entry): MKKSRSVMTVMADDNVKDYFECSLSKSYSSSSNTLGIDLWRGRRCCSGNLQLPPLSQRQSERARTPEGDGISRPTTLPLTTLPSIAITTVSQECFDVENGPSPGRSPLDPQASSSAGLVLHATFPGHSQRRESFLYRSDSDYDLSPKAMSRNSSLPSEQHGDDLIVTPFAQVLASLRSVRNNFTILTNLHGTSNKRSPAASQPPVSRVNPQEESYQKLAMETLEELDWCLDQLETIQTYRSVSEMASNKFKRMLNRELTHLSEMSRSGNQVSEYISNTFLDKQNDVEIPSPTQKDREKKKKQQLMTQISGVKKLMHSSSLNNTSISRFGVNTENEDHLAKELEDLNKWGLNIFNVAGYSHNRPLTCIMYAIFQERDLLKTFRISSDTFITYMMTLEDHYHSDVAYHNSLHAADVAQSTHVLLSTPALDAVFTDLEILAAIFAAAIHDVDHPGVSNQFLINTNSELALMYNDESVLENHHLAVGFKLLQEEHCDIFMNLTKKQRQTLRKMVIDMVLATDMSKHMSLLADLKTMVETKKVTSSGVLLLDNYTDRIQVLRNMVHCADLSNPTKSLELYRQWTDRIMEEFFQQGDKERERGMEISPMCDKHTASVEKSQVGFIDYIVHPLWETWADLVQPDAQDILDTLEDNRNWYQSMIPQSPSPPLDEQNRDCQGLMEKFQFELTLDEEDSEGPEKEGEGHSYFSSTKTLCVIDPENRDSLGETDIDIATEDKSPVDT
T5 sequence (P27815 1-647 isoform P27815-4): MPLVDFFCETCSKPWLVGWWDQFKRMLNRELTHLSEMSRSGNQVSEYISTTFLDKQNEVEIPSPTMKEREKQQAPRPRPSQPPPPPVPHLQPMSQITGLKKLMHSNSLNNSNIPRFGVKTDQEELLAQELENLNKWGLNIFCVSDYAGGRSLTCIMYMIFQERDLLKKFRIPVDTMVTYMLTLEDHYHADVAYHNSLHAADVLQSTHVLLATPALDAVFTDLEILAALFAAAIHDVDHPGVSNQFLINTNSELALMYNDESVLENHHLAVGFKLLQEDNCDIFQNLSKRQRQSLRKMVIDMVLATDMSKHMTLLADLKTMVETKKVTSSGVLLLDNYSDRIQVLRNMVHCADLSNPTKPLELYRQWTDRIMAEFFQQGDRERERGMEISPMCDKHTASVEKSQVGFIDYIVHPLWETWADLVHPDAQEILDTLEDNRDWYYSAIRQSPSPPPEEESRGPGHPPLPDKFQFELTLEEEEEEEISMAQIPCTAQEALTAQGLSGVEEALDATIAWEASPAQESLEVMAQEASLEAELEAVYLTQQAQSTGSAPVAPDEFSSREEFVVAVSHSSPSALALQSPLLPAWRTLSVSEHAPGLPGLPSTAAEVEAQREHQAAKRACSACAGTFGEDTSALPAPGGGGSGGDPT

Row | SMILES | inhibition at 10 µM (Human recombinant PDE4C1) [%] | EC50 (human wild type-CFTR [1]) [nM] | EC50 (human wild type-CFTR [2]) [nM] | inhibition at 10 µM [3] [%] | inhibition at 10 µM (Human recombinant PDE4D2) [%] | solubility at 90 min [4] [µg/mL] | inhibition at 10 µM [5] [%] | inhibition at 10 µM (Human recombinant PDE4C1; 10 uM test compound) [%] | inhibition at 10 µM ([3]; 10 uM test compound) [%] | inhibition at 10 µM (Human recombinant PDE4D2; 10 uM test compound) [%] | inhibition at 10 µM ([5]; 10 uM test compound) [%]
1 | COC(=O)c1ccc(NC(=O)c2cc3nccc(-c4ccc(OC)c(OC)c4)n3n2)cc1 [Compound 11, methyl 4-(7-(3,4-dimethoxyphenyl)pyrazolo[1,5-a]pyrimidine-2-carboxamido)benzoate] | > 80 | < 200 | < 200 | > 80 | > 80 | < 0.1 | > 80 | – | – | – | –
2 | COc1ccc(-c2ccnc3cc(C(=O)Nc4ccc(C(=O)N5CCOCC5)cc4)nn23)cc1OC [Compound 41, 7-(3,4-dimethoxyphenyl)-N-(4-(morpholine-4-carbonyl)phenyl)pyrazolo [1,5-a]pyrimidine-2-carboxamide] | – | – | – | – | – | < 0.1 | – | > 80 | > 80 | > 80 | > 80
3 | COc1ccc(-c2ccnc3cc(C(=O)N4CCN(C(=O)c5ccccc5)[C@@H](C)C4)nn23)cc1OC [Compound 210, (S)-(4-benzoyl-3-methylpiperazin-1-yl)(7-(3,4-dimethoxyphenyl)pyrazolo[1,5-a]pyrimidin-2-yl)methanone] | – | – | – | – | – | 0.1 to 10 (≈ 0.206 to 20.6 µM) | – | > 80 | > 80 | > 80 | > 80
4 | COc1ccc(-c2ccnc3cc(C(=O)N4CCN(S(=O)(=O)c5ccccc5)[C@@H](C)C4)nn23)cc1OC [Compound 355, (S)-(7-(3,4-dimethoxy-phenyl)pyrazolo[1,5-a]pyrimidin-2-yl)(3-methyl-4-(phenylsulfonyl)piperazin-1-yl)methanone] | – | < 200 | – | – | – | – | – | > 80 | > 80 | > 80 | > 80
5 | COC(=O)C(=Cc1ccccc1)NC(=O)c1cc2nccc(-c3ccc(OC)c(OC)c3)n2n1 [Compound 105, methyl 2-(7-(3,4-dimethoxyphenyl)pyrazolo [1,5-a]pyrimidine-2-carboxamido) 3-phenylacrylate] | – | < 200 | 200 to 2000 | – | – | < 0.1 | – | > 80 | > 80 | > 80 | > 80
6 | COc1ccc(-c2ccnc3cc(C(=O)Nc4ccc(OCCN5CCOCC5)cc4)nn23)cc1OC [Compound 198, 7-(3,4-dimethoxyphenyl)-N-(4-(2-morpholinoethoxy)phenyl)pyrazolo[1,5-a]pyrimidine-2-carboxamide] | – | < 200 | < 200 | – | – | – | – | > 80 | > 80 | > 80 | > 80
7 | COC(=O)c1ccc(CNC(=O)c2cc3nccc(-c4ccc(OC)c(OC)c4)n3n2)cc1 [Compound 12, methyl 4-((7-(3,4-dimethoxyphenyl)pyrazolo [1,5-a]pyrimidine-2-carboxamido)methyl) benzoate] | – | 200 to 2000 | ≥ 2000 | – | – | < 0.1 | – | 50 to 80 | 50 to 80 | 50 to 80 | > 80
8 | COc1ccc(-c2ccnc3cc(C(=O)N4CC[C@@H](NC(=O)c5ccccc5)C4)nn23)cc1OC [Compound 384, (R)-N-(1-(7-(3,4-dimethoxyphenyl)pyrazolo[1,5-a]pyrimidine-2-carbonyl)pyrrolidin-3-yl)benzamide] | – | < 200 | – | – | – | – | – | 50 to 80 | > 80 | > 80 | > 80
9 | COC(=O)c1ccc(NC(=O)c2cc3ncc(-c4ccc(OC)c(OC)c4)cn3n2)cc1 [Compound 239, methyl 4-(6-(3,4-dimethoxyphenyl)pyrazolo[1,5-a]pyrimidine-2-carboxamido)benzoate] | – | ≥ 2000 | – | – | – | – | – | < 50 | < 50 | < 50 | < 50
10 | COC(=O)c1ccccc1NC(=O)c1cc2nccc(-c3ccc(OC)c(OC)c3)n2n1 [Compound 7, methyl 2-(7-(3,4-dimethoxyphenyl)pyrazolo [1,5-a]pyrimidine-2-carboxamido)benzoate] | – | – | – | – | – | < 0.1 | – | < 50 | < 50 | < 50 | < 50
11 | COc1ccc(-c2ccnc3cc(C(=O)Nc4ccc(N5CCOCC5)cc4)nn23)cc1OC [Compound 194, 7-(3,4-dimethoxyphenyl)-N-(4-morpholinophenyl)pyrazolo [1,5-a]pyrimidine-2-carboxamide] | – | < 200 | – | – | – | – | – | > 80 | > 80 | > 80 | > 80
12 | COc1ccc(-c2ccnc3cc(C(=O)N[C@H]4CC[C@H](C(=O)OC)CC4)nn23)cc1OC [Compound 10, methyl (1r,4r)-4-(7-(3,4-dimethoxyphenyl)pyrazolo[1,5-a]pyrimidine-2-carboxamido)cyclohexane-1-carboxylate] | – | – | – | – | – | 0.1 to 10 (≈ 0.228 to 22.8 µM) | – | > 80 | > 80 | > 80 | > 80
13 | COc1ccc(-c2ccnc3cc(NC(=O)Nc4ccc(C(=O)N5CCOCC5)cc4)nn23)cc1OC [Compound 129, 1-(7-(3,4-dimethoxyphenyl)pyrazolo[1,5-a]pyrimidin-2-yl)-3-(4-(morpholine-4-carbonyl)phenyl)urea] | – | 200 to 2000 | ≥ 2000 | – | – | – | – | > 80 | > 80 | > 80 | > 80
14 | COC(=O)c1ccc(NC(=O)c2cc3nccc(-c4ccc(OC)c(F)c4)n3n2)cc1 [Compound 33, methyl 4-(7-(3-fluoro-4-methoxyphenyl)pyrazolo [1,5-a]pyrimidine-2-carboxamido)benzoate] | – | 200 to 2000 | ≥ 2000 | – | – | < 0.1 | – | < 50 | 50 to 80 | 50 to 80 | 50 to 80
15 | COC(=O)c1ccc(NC(=O)c2cc3nccc(-c4ccc(OC)c(OC)c4)n3n2)c(F)c1 [Compound 136, methyl 4-(7-(3,4-dimethoxyphenyl)pyrazolo[1,5-a]pyrimidine-2-carboxamido)-3-fluorobenzoate] | – | – | – | – | – | < 0.1 | – | > 80 | > 80 | > 80 | > 80
16 | COc1ccc(-c2ccnc3cc(C(=O)Nc4ccc(C(=O)N5CCOCC5)cn4)nn23)cc1OC [Compound 135, 7-(3,4-dimethoxyphenyl)-N-(5-(morpholine-4-carbonyl)pyridin-2-yl) pyrazolo[1,5-a] pyrimidine-2-carboxamide] | – | < 200 | < 200 | – | – | < 0.1 | – | > 80 | > 80 | > 80 | > 80
